Source: ChEMBL document CHEMBL5241053, “Discovery of novel steroidal-chalcone hybrids with potent and selective activity against triple-negative breast cancer” (Bioorg Med Chem, 2020)
Calls of active or inactive are those of the source. The rule behind the calls is not given here.

What was measured:
[1] = tested on: MDA-MB-231; assay: Antiproliferative activity against human MDA-MB-231 cells assessed as cell growth inhibition incubated for 4 hrs by MTT assay; type: functional, cell-based; conditions: MDA-MB-231, 4 h
[2] = tested on: HT-29; assay: Antiproliferative activity against human HT-29 cells assessed as cell growth inhibition incubated for 4 hrs by MTT assay; type: functional, cell-based; conditions: HT-29, 4 h
[3] = tested on: A549; assay: Antiproliferative activity against human A549 cells assessed as cell growth inhibition incubated for 4 hrs by MTT assay; type: functional, cell-based; conditions: A549, 4 h
[4] = Selectivity index, ratio of IC50 for antiproliferative activity against human HT-29 cells to IC50 for antiproliferative activity against human MDA-MB-231 cells; type: functional
[5] = Selectivity index, ratio of IC50 for antiproliferative activity against human A549 cells to IC50 for antiproliferative activity against human MDA-MB-231 cells; type: functional
[6] = tested on: MDA-MB-231; assay: Inhibition of colony formation in human MDA-MB-231 cells upto 5 uM for 9 days by crystal violet staining based assay; type: functional, cell-based; conditions: time 9.0 day
[7] = tested on: MDA-MB-231; assay: Induction of cell cycle arrest in human MDA-MB-231 cells assessed as accumulation of cells at G0/G1 phase at 1 uM incubated for 48 hrs by propidium iodide staining based flow cytometry (reference value: 90.25%); type: functional
[8] = tested on: MDA-MB-231; assay: Induction of cell cycle arrest in human MDA-MB-231 cells assessed as accumulation of cells at S phase at 1 uM incubated for 48 hrs by propidium iodide staining based flow cytometry (reference value: 3.62%); type: functional
[9] = tested on: MDA-MB-231; assay: Induction of cell cycle arrest in human MDA-MB-231 cells assessed as accumulation of cells at G2/M phase at 1 uM incubated for 48 hrs by propidium iodide staining based flow cytometry (reference value: 3.61%); type: functional
[10] = tested on: MDA-MB-231; assay: Induction of cell cycle arrest in human MDA-MB-231 cells assessed as accumulation of cells at G0/G1 phase at 5 uM incubated for 48 hrs by propidium iodide staining based flow cytometry (reference value: 90.25%); type: functional
[11] = tested on: MDA-MB-231; assay: Induction of cell cycle arrest in human MDA-MB-231 cells assessed as accumulation of cells at S phase at 5 uM incubated for 48 hrs by propidium iodide staining based flow cytometry (reference value: 3.62%); type: functional
[12] = tested on: MDA-MB-231; assay: Induction of cell cycle arrest in human MDA-MB-231 cells assessed as accumulation of cells at G2/M phase at 5 uM incubated for 48 hrs by propidium iodide staining based flow cytometry (reference value: 3.61%); type: functional
[13] = tested on: MDA-MB-231; assay: Induction of cell cycle arrest in human MDA-MB-231 cells assessed as accumulation of cells at M1 phase at 1 uM incubated for 48 hrs by propidium iodide staining based flow cytometry (reference value: 7.1%); type: functional
[14] = tested on: MDA-MB-231; assay: Induction of cell cycle arrest in human MDA-MB-231 cells assessed as accumulation of cells at M1 phase at 5 uM incubated for 48 hrs by propidium iodide staining based flow cytometry (reference value: 7.1%); type: functional
[15] = tested on: MDA-MB-231; assay: Induction of cell cycle arrest in human MDA-MB-231 cells assessed as accumulation of cells at G0/G1 phase at 10 uM incubated for 48 hrs by propidium iodide staining based flow cytometry (reference value: 90.25%); type: functional
[16] = tested on: MDA-MB-231; assay: Induction of cell cycle arrest in human MDA-MB-231 cells assessed as accumulation of cells at S phase at 10 uM incubated for 48 hrs by propidium iodide staining based flow cytometry (reference value: 3.62%); type: functional
[17] = tested on: MDA-MB-231; assay: Induction of cell cycle arrest in human MDA-MB-231 cells assessed as accumulation of cells at G2/M phase at 10 uM incubated for 48 hrs by propidium iodide staining based flow cytometry (reference value: 3.61%); type: functional
[18] = tested on: MDA-MB-231; assay: Induction of cell cycle arrest in human MDA-MB-231 cells assessed as accumulation of cells at M1 phase at 10 uM incubated for 48 hrs by propidium iodide staining based flow cytometry (reference value: 7.1%); type: functional
[19] = tested on: MDA-MB-231; assay: Induction of cell cycle arrest in human MDA-MB-231 cells assessed as accumulation of cells at G0/G1 phase at 20 uM incubated for 48 hrs by propidium iodide staining based flow cytometry (reference value: 90.25%); type: functional
[20] = tested on: MDA-MB-231; assay: Induction of cell cycle arrest in human MDA-MB-231 cells assessed as accumulation of cells at S phase at 20 uM incubated for 48 hrs by propidium iodide staining based flow cytometry (reference value: 3.62%); type: functional
[21] = tested on: MDA-MB-231; assay: Induction of cell cycle arrest in human MDA-MB-231 cells assessed as accumulation of cells at G2/M phase at 20 uM incubated for 48 hrs by propidium iodide staining based flow cytometry (reference value: 3.61%); type: functional
[22] = tested on: MDA-MB-231; assay: Induction of cell cycle arrest in human MDA-MB-231 cells assessed as accumulation of cells at M1 phase at 20 uM incubated for 48 hrs by propidium iodide staining based flow cytometry (reference value: 7.1%); type: functional
[23] = tested on: MDA-MB-231; assay: Induction of apoptosis in human MDA-MB-231 cells assessed as increase in ROS levels at 10 uM measured upto 48 hrs by DCFH-DA staining based flow cytometry assay; type: functional, cell-based
[24] = tested on: MDA-MB-231; assay: Induction of apoptosis in human MDA-MB-231 cells assessed as increase in ROS levels at 10 uM measured at 12 hrs by DCFH-DA staining based flow cytometry assay; type: functional, cell-based
[25] = tested on: MDA-MB-231; assay: Induction of apoptosis in human MDA-MB-231 cells assessed as viable cells at 1 uM measured for 48 hrs by Annexin V-FITC/PI staining based flow cytometry assay (reference value: 93.7%); type: functional; conditions: read-out: Activity
[26] = tested on: MDA-MB-231; assay: Induction of apoptosis in human MDA-MB-231 cells assessed as early apoptotic cells at 1 uM measured for 48 hrs by Annexin V-FITC/PI staining based flow cytometry assay (reference value: 0.49%); type: functional
[27] = tested on: MDA-MB-231; assay: Induction of apoptosis in human MDA-MB-231 cells assessed as late apoptotic cells at 1 uM measured for 48 hrs by Annexin V-FITC/PI staining based flow cytometry assay (reference value: 5.39%); type: functional
[28] = tested on: MDA-MB-231; assay: Induction of apoptosis in human MDA-MB-231 cells assessed as necrotic cells at 1 uM measured for 48 hrs by Annexin V-FITC/PI staining based flow cytometry assay (reference value: 0.43%); type: functional
[29] = tested on: MDA-MB-231; assay: Induction of apoptosis in human MDA-MB-231 cells assessed as decrease in Bcl-2 level upto 20 uM incubated for 48 hrs by Western blot analysis; type: functional, cell-based
[30] = tested on: MDA-MB-231; assay: Induction of apoptosis in human MDA-MB-231 cells assessed as increase in Bax level upto 20 uM incubated for 48 hrs by Western blot analysis; type: functional, cell-based
[31] = tested on: MDA-MB-231; assay: Induction of apoptosis in human MDA-MB-231 cells assessed as upregulation of cleaved caspase-3 level upto 20 uM incubated for 48 hrs by Western blot analysis; type: functional, cell-based
[32] = tested on: MDA-MB-231; assay: Induction of apoptosis in human MDA-MB-231 cells assessed as upregulation of PARP level upto 20 uM incubated for 48 hrs by Western blot analysis; type: functional, cell-based
[33] = tested on: MDA-MB-231; assay: Induction of apoptosis in human MDA-MB-231 cells assessed as viable cells at 5 uM measured for 48 hrs by Annexin V-FITC/PI staining based flow cytometry assay (reference value: 93.7%); type: functional; conditions: read-out: Activity
[34] = tested on: MDA-MB-231; assay: Induction of apoptosis in human MDA-MB-231 cells assessed as early apoptotic cells at 5 uM measured for 48 hrs by Annexin V-FITC/PI staining based flow cytometry assay (reference value: 0.49%); type: functional
[35] = tested on: MDA-MB-231; assay: Induction of apoptosis in human MDA-MB-231 cells assessed as late apoptotic cells at 5 uM measured for 48 hrs by Annexin V-FITC/PI staining based flow cytometry assay (reference value: 5.39%); type: functional
[36] = tested on: MDA-MB-231; assay: Induction of apoptosis in human MDA-MB-231 cells assessed as necrotic cells at 5 uM measured for 48 hrs by Annexin V-FITC/PI staining based flow cytometry assay (reference value: 0.43%); type: functional
[37] = tested on: MDA-MB-231; assay: Induction of apoptosis in human MDA-MB-231 cells assessed as viable cells at 10 uM measured for 48 hrs by Annexin V-FITC/PI staining based flow cytometry assay (reference value: 93.7%); type: functional; conditions: read-out: Activity
[38] = tested on: MDA-MB-231; assay: Induction of apoptosis in human MDA-MB-231 cells assessed as early apoptotic cells at 10 uM measured for 48 hrs by Annexin V-FITC/PI staining based flow cytometry assay (reference value: 0.49%); type: functional
[39] = tested on: MDA-MB-231; assay: Induction of apoptosis in human MDA-MB-231 cells assessed as late apoptotic cells at 13.5 uM measured for 48 hrs by Annexin V-FITC/PI staining based flow cytometry assay (reference value: 5.39%); type: functional
[40] = tested on: MDA-MB-231; assay: Induction of apoptosis in human MDA-MB-231 cells assessed as necrotic cells at 10 uM measured for 48 hrs by Annexin V-FITC/PI staining based flow cytometry assay (reference value: 0.43%); type: functional

- IC50 [1]: 0.42 µM
- IC50 [2]: 11.7 µM
- IC50 [3]: 30.9 µM
Compound: COc1ccccc1/C=C/C(=O)NCCNC(=O)[C@H]1CC[C@H]2[C@@H]3CCC4=CC(=O)CC[C@]4(C)[C@H]3CC[C@]12C
- Ratio IC50 [4]: 22.5
- Ratio IC50 [5]: 73.5
- inhibition [6]: Active
- Activity [7]: 84.13%
- Activity [8]: 2.52%
- Activity [9]: 12.11%
- Activity [10]: 69.83%
- Activity [11]: 15.23%
- Activity [12]: 12.25%
- Activity [13]: 13.8%
- Activity [14]: 16%
- Activity [15]: 55.27%
- Activity [16]: 28.07%
- Activity [17]: 13.15%
- Activity [18]: 22.8%
- Activity [19]: 47.17%
- Activity [20]: 37.22%
- Activity [21]: 10.01%
- Activity [22]: 37.4%
- Activity [23]: Active
- Activity [24]: Active
- viability at 1 µM [25]: 84%
- Activity [26]: 9.24%
- Activity [27]: 6.63%
- Activity [28]: 0.16%
- Activity [29]: Active
- Activity [30]: Active
- Activity [31]: Active
- Activity [32]: Active
- viability at 5 µM [33]: 78.3%
- Activity [34]: 17.1%
- Activity [35]: 4.35%
- Activity [36]: 0.16%
- viability at 10 µM [37]: 41.1%
- Activity [38]: 45%
- Activity [39]: 13.5%
- Activity [40]: 0.4%
